According to patent US20100105054A1, “GENE EXPRESSION IN DUCHENNE MUSCULAR DYSTROPHY” (CINCINNATI CHILDREN'S HOSPITAL MEDICAL CENTER, priority 2008, published 2010):
Entries after “also recorded” stand apart in the source; their conditions may differ. Like-named read-outs stand apart in the source and are kept apart here.

Tests used:
mdx mouse = settings: cited from earlier work; for muscle strength: dystrophin deficient mdx mice
individuals with DMD = settings: cited from earlier work; for muscle function and strength in individuals with DMD: humans with DMD
[1] = tested on: dystrophin deficient Caenorhabditis elegans; settings: dystrophin deficient C. elegans; cited from earlier work
myasthenia gravis = settings: compared to prednisone; cited from earlier work
[2] = tested on: gene expression in peripheral blood; assay: Whole genome microarray of peripheral whole blood RNA, DMD administered prednisone or deflazacort vs DMD not administered steroid; assay type: in vivo, human; settings: for KFL10 expression: individuals administered prednisone, deflazacort, or both vs DMD not administered any agent; for KFL10 expression / CD163 nucleic acid expression / FKBP5 expression / expression of genes in the chondroitin sulfate biosynthesis pathway / haptoglobin nucleic acid expression / lactotransferrin expression / lipocalin expression: blood; for CD163 nucleic acid expression / FKBP5 expression / expression of genes in the chondroitin sulfate biosynthesis pathway / haptoglobin nucleic acid expression / lactotransferrin expression / lipocalin expression: pooled deflazacort or prednisone group vs DMD not administered; for genes with significantly different expression: pooled group administered either prednisone or deflazacort vs DMD not administered, fold change >|1.5|, unpaired t-test, p<=0.05; for genes with down-regulated expression levels / genes with up-regulated expression levels: pooled prednisone or deflazacort group vs DMD not administered, of the 524 genes
Experimental: Individuals with DMD were evaluated and had been diagnosed by a single board-certified pediatric neurologist. The diagnosis of DMD was based in part upon clinical history, examination findings, and selected muscle biopsies and was confirmed by molecular diagnostic testing.
(§1) Of the 34 individuals with DMD, 14 were administered either prednisone (PRED, n=6) or deflazacort, an oxazoline derivative of prednisolone (DEFL, n=8) at the time blood samples for gene expression evaluation were obtained. The mean duration of administration of either prednisone or deflazacort for these 14 individuals was 43.9 months. Of the 34 individuals with DMD, 20 individuals had not been administered either prednisone or deflazacort at the time blood samples for gene expression evaluation were obtained.
(§2) Sample processing and array hybridization, probe-level data analysis, and statistical analysis were identical to Example 1.

[3] = tested on: gene expression in peripheral blood; assay: Whole genome microarray of peripheral whole blood RNA, DMD administered deflazacort vs DMD administered prednisone; assay type: in vivo, human
Experimental: as §1, §2

[4] = DMD individuals receiving deflazacort
[5] = deflazacort compared to prednisone, of the 508 genes
[6] = individuals with DMD administered prednisone, blood

Structure (SMILES)	muscle strength (mdx mouse)	CD-11 inflammatory cells in mdx muscle (mdx mouse)	muscle function and strength in individuals with DMD (individuals with DMD)	muscle degeneration [1]	KFL10 expression [2]	CD163 nucleic acid expression [2]	FKBP5 expression [2]	expression of genes in the chondroitin sulfate biosynthesis pathway [2]	haptoglobin nucleic acid expression [2]	lactotransferrin expression [2]	lipocalin expression [2]	genes with significantly different expression [2]	genes with down-regulated expression levels [2]	genes with up-regulated expression levels [2]	further results
C[C@]12C=CC(=O)C=C1CC[C@@H]1[C@@H]2[C@@H](O)C[C@@]2(C)[C@H]1CC[C@]2(O)C(=O)CO [prednisolone]	improve muscle strength	decrease	improve function	reduce muscle degeneration											
Cn1cnc([N+](=O)[O-])c1Sc1ncnc2nc[nH]c12 [azathioprine]			does not improve DMD; also recorded: no improvement												immunosuppressant effectiveness (myasthenia gravis): less effective immunosuppressant
CC(=O)OCC(=O)[C@@]12N=C(C)O[C@@H]1C[C@H]1[C@@H]3CCC4=CC(=O)C=C[C@]4(C)[C@H]3[C@@H](O)C[C@@]12C [deflazacort]			improved muscle function and strength		up-regulated	up-regulated expression levels	up-regulated expression levels	up-regulated expression levels	up-regulated expression levels	increased expression levels	increased expression levels	524 genes	127 genes	397 genes	side effects (individuals with DMD; [4]): fewer side effects; weight gain (individuals with DMD; [4]): less weight gain; genes significantly different ([3]; DMD administered deflazacort compared to DMD administered prednisone, fold change >=|1.5|, unpaired t-test, p<=0.05, peripheral blood): 508 genes; changes in gene expression ([3]; deflazacort compared to prednisone): fewer changes in gene expression; expression of retinoic acid receptor a (RARa) ([3]; deflazacort compared to prednisone, blood): significantly up-regulated; genes significantly down-regulated [3, 5]: 478 genes; genes significantly up-regulated [3, 5]: 30 genes
C[C@]12C=CC(=O)C=C1CC[C@@H]1[C@@H]2C(=O)C[C@@]2(C)[C@H]1CC[C@]2(O)C(=O)CO [prednisone]	improve muscle strength	decrease	improved muscle function and strength	reduce muscle degeneration	up-regulated	up-regulated expression levels	up-regulated expression levels	up-regulated expression levels	up-regulated expression levels	increased expression levels	increased expression levels	524 genes	127 genes	397 genes	KFL10 expression in the mdx mouse (mdx mouse; following six weeks of prednisone administration): up-regulated; muscle function and strength in individuals with DMD (individuals with DMD; listed as Prednisone): improve function; interleukin 1 beta expression [3, 6]: up-regulated; interleukin 1 receptor antagonist expression [3, 6]: up-regulated; interleukin 6 receptor expression [3, 6]: up-regulated; expression of genes related to lipid metabolism, particularly in adipose tissue ([3]; prednisone compared to deflazacort, blood): up-regulated
